Results taken from patent US5962424A, “Methods and compositions for targeting selectins” (Arch Development Corporation, priority 1995, dated 1999).

What was measured:
[1] = system: E-selectin production in irradiated HUVEC; test: x-ray-mediated E-selectin induction in HUVEC after inhibitor pretreatment (antibody labeling, flow cytometry); format: cell-based, human; conditions: H7 100 nM, staurosporin 10 nM, BPB 10 μM, mepacrine 20 μM added prior to irradiation
Protocol: HUVEC and HMEC cells were grown to 90% confluence and irradiated with a GE Maxitron x-ray generator as previously described (Hallahan et al., 1989). Cells were removed from flasks with 0.1% collagenase, 0.01% EDTA, 0.25% BSA and pelleted in 12×75 mm polystyrene tubes. The supernatant was discarded and the cells were incubated with primary IgG1 antibody (mouse anti-human ICAM-1 and E-selectin-1; R&D Systems, Inc., Minneapolis,MN) for 20 min at 4° C.
The cells were then rinsed with isotonic phosphate buffered saline (PBS), pelleted and incubated with FITC-conjugated secondary antibody (goat anti-mouse IgG1) for 20 min at 4° C. The fluorescently labeled cells were rinsed in PBS and fixed in PBS containing 0.01% paraformaldehyde.
Fluorescence activated cell sorting (FACS) analysis was utilized for quantitation of receptor expression of ICAM-1 and E-selectin on HUVEC. The Becton Dickinson FACScanner was used with Lysis II software. Forward and side scatter fluorescence data identified 10,000 viable endothelial cells in each experimental group for unlabeled cells, nonspecific-antibody-labelled cells, ICAM-1-labeled cells and E-selectin-labeled cells. Fluorescence data were then accumulated on each group of 10,000 cells at 530 nm, the wavelength emitted by FITC.
The fluorescence data were expressed as histograms of events versus log fluorescence and analyzed in comparison to the autofluorescence of unlabelled cells as well as the fluorescence of baseline ICAM-1 labelled or E-selectin-1 labeled cells as appropriate. During inhibition studies, PKC inhibitors H7 100 nM and staurosporin 10 nM or Phospholipase A2 inhibitors BPB 10 μM or mepacrine 20 μM were added to cell cultures 30 min prior to irradiation.
PKC participates in both NFkB activation and signal transduction initiated by ionizing radiation (Hallahan et al., 1991). Furthermore, PLA2 participates in free-radical and x-ray-mediated PKC activation and gene induction (Hallahan et al., 1991). To determine whether PLA2 or PKC activation is required for radiation-mediated E-selectin induction, the inventors added the PKC inhibitors H7 and staurosporin or the PLA2 inhibitors BPB or mepacrine to HUVEC […] prior to irradiation. Following irradiation, cells were scraped and E-selectin was quantified by antibody labeling and flow cytometry.

selectin = conditions: cited from earlier work; for blocking of selectin binding to sLe^x: in vitro
[2] = system: HL60 cells / irradiated HUVECs; test: adherence of HL60 cells to irradiated HUVECs; format: cell-based, human; conditions: 1 mM; added 4 h after 10 Gy irradiation, 30 min prior to HL60 cells
Protocol: Human leukemia cell line HL60 has been used to quantify leukocyte adhesion to endothelial cells (Jones et al., 1995). HL60 cells were added to HUVECs after exposure to 10 Gy or cells treated with otherwise identical conditions without irradiation. Cultures were washed and cells were counted using a hemocytometer. […] Glycyrrhizin, carminic acid or sialyl Lewis X (1 mM each, SIGMA) were added to irradiated cells at 4 h after irradiation and 30 min prior to the addition of HL60 cells.

[3] = rats, oral; cited from earlier work
E-selectin = conditions: competitive binding assay, cited from earlier work

Structure (SMILES): CC1CNCCN1S(=O)(=O)c1cccc2cnccc12 (stereo not shown) [H7]
- radiation-mediated E-selectin production [1]: not attenuated

Structure (SMILES): CC1(C)[C@@H](O)CC[C@]2(C)[C@H]3C(=O)C=C4[C@@H]5C[C@@](C)(C(=O)O)CC[C@]5(C)CC[C@@]4(C)[C@]3(C)CC[C@@H]12 [18-β-glycyrrhetinic acid]
- IC50 (selectin; read-out: IC50 (blocking selectin activity)): > 2000 µM

Structure (SMILES): CC(=O)N[C@H]1[C@H]([C@H](O)[C@H](O)CO)O[C@@](O[C@H]2[C@@H](O)[C@@H](CO)O[C@@H](O[C@H]3[C@H](O[C@@H]4O[C@@H](C)[C@@H](O)[C@@H](O)[C@@H]4O)[C@@H](NC(C)=O)C(O)O[C@@H]3CO)[C@@H]2O)(C(=O)O)C[C@@H]1O (stereo partly shown) [sialyl Lewis X, Neu5Acα2-3Galβ1-4[Fucα1-3]GlcNAc]
- adherence of HL60 cells to irradiated HUVECs [2]: blocked the adherence

Structure (SMILES): CN[C@@H]1C[C@H]2O[C@@](C)([C@@H]1OC)n1c3ccccc3c3c4c(c5c6ccccc6n2c5c31)C(=O)NC4 [staurosporin]
- radiation-mediated E-selectin production [1]: not attenuated

Structure (SMILES): CC1(C)[C@@H](O[C@H]2O[C@H](C(=O)O)[C@@H](O)[C@H](O)[C@H]2O[C@@H]2O[C@H](C(=O)O)[C@@H](O)[C@H](O)[C@H]2O)CC[C@]2(C)[C@H]3C(=O)C=C4[C@@H]5C[C@@](C)(C(=O)O)CC[C@]5(C)CC[C@@]4(C)[C@]3(C)CC[C@@H]12 [Glycyrrhizin]
- adherence of HL60 cells to irradiated HUVECs [2]: blocked the adherence
- blocking of selectin binding to sLe^x (selectin): block selectin binding
- absorption from the gut [3]: poorly absorbed

Structure (SMILES): CCN(CC)CCCC(C)Nc1c2ccc(Cl)cc2nc2ccc(OC)cc12 (stereo not shown) [mepacrine]
- radiation-mediated E-selectin production [1]: not attenuated

Structure (SMILES): Cc1c(C(=O)O)c(O)cc2c1C(=O)c1c(O)c([C@@H]3O[C@H](CO)[C@@H](O)[C@H](O)[C@H]3O)c(O)c(O)c1C2=O [carminic acid]
- adherence of HL60 cells to irradiated HUVECs [2]: blocked the adherence
- blocking of selectin binding to sLe^x (selectin): blocked selectin binding at concentrations comparable to those of glycyrrhizin

Structure (SMILES): COC(=O)CCCCCCCCO[C@@H]1O[C@H](CO)[C@@H](O[C@@H]2O[C@@H](C)[C@@H](O)[C@@H](O)[C@@H]2O)[C@H](O[C@@H]2O[C@H](CO)[C@H](O)[C@H](O[C@]3(C(=O)O)C[C@H](O)[C@@H](NC(C)=O)[C@H]([C@H](O)[C@H](O)CO)O3)[C@H]2O)[C@H]1N [amino substituted sLe^a]
- activity relative to the reducing tetrasaccharide sLe^x (E-selectin): 36 fold
- IC50 (E-selectin; read-out: IC50 (blocking of E-selectin)): 21 ± 3 µM

Structure (SMILES): O=C(CBr)c1ccc(Br)cc1 [BPB]
- radiation-mediated E-selectin production [1]: not attenuated
